{"source": "patent US12600724B2", "about": "“Indole alkaloid and preparation method and use thereof” (NANJING UNIVERSITY OF CHINESE MEDICINE, priority 2022, dated 2026)", "key": {"[1]": {"system": "type-2 diabetes model db/db mice", "experiment": "Latent period of thermal pain, type-2 diabetes db/db mice", "assay_type": "in vivo, BKS db/db mice", "conditions": "S26 46.8 mg/kg/day intragastric, Mean ± SD, n = 6", "description": "(§1) Type-2 diabetes mice: male 18-week-old BKS db/db mice were purchased from Jiangsu Gempharmatech Biotechnology Co., Ltd. One week after adaptive feeding, the mice were divided into a control group (db/m mice), a model group (db/db mice) and a S26 administration group (46.8 mg/kg/day) respectively according to body weight and blood sugar, and administrated intragastrically for four weeks continuously. A response of an animal to infrared thermal stimulation was detected weekly by an infrared plantar pain threshold detector (37370, purchased from Ugo Basile Company) before and after administration to characterize a thermal pain sensitivity of the animal. A mouse was put into a single cage equipped for the machine in advance to adapt for 20 minutes, and then plantar thermal stimulation was carried out on the mouse. […] The thermal pain sensitivity was evaluated by comparing the thermal stimulation time."}, "[2]": {"system": "STZ-induced type-1 diabetes model mice", "experiment": "Latent period of thermal pain, type-1 diabetic peripheral neuropathy mice", "assay_type": "in vivo, C57BL/6J mice", "conditions": "type-1 mice, S26 46.8 mg/kg/day intragastric, Mean ± SD, n = 6", "description": "as §1, with “Type-1” for “Type-2”, “8-week-old C57BL/6J” for “18-week-old BKS db/db”, “Beijing Vital River Laboratory Animal Technology” for “Jiangsu Gempharmatech Biotechnology”, “feeding, STZ (150 mg/kg) was injected intraperitoneally, and one week later, tail vein blood collection was carried out for blood sugar detection, and the mice with random blood sugar greater than 16 mmol/L were selected. Six weeks after STZ injection,” for “feeding,”, “(non-diabetic” for “(db/m”, “(DPN” for “(db/db”"}, "[3]": {"system": "STZ-induced type-1 diabetes model mice", "experiment": "50% mechanical pain threshold (Von frey), type-1 diabetic peripheral neuropathy mice", "assay_type": "in vivo, C57BL/6J mice", "conditions": "type-1 mice, S26 46.8 mg/kg/day intragastric, Mean ± SD, n = 6", "description": "Type-1 diabetes mice: male 8-week-old C57BL/6J mice were purchased from Beijing Vital River Laboratory Animal Technology Co., Ltd. One week after adaptive feeding, STZ (150 mg/kg) was injected intraperitoneally, and one week later, tail vein blood collection was carried out for blood sugar detection, and the mice with random blood sugar greater than 16 mmol/L were selected. Six weeks after STZ injection, the mice were divided into a control group (non-diabetic mice), a model group (DPN mice) and a S26 administration group (46.8 mg/kg/day) respectively according to body weight and blood sugar, and administrated intragastrically for four weeks continuously. This experiment was based on a principle that claws of rodents would have a withdrawal reflex under mechanical stimulation. A Von frey tactile measuring set was purchased from Ugo Basile Company, and Von frey filaments could provide 0.008 g to 300 g of stimulating force, wherein a thickness of the filaments determined a magnitude of the stimulating force. Specific experimental method: filaments with proper thicknesses were selected to vertically stimulate a skin, and the stimulating force was adjusted by replacing the filaments, until the filaments were bent. One mouse was tested for 6 times to determine a threshold, and a 50% mechanical pain threshold of the mouse was calculated according to 50% threshold=(10^(Xf+k δ))/10000, which was detected weekly before and after administration respectively."}, "primary DRG neuron": {"system": "primary DRG neuron", "experiment": "Axon growth of primary DRG neurons (immunofluorescence, Neuro J)", "assay_type": "cell-based, C57BL/6J mice", "conditions": "24 hours", "description": "Diabetic peripheral neuropathy involved a sensory neuron first, and a main pathological change was axonal atrophy and degeneration, or even disappearance. […] Therefore, the compounds in the examples were added with the primary DRG neuron to incubate for a certain period of time, then the axon growth of the DRG neuron was detected by immunofluorescence, and an axon length was quantified by Neuro J, so as to evaluate the promotion effect of the compound on the axon growth of the peripheral sensory neuron.\nPrimary antibodies of mice anti-β-tubulin III used for fluorescent staining were purchased from Sigma Company, cell culture reagents were all purchased from Gibco Company, and DRG neuronal cells were taken from C57BL/6J mice. Specific experimental steps were as follows: fresh DRG of the C57 mice was extracted to digest into a single-cell suspension and then inoculated into a culture plate for adherent culture overnight, with vinblastine as a positive drug, the to-be-detected compounds S1 to S87 ([…]) synthesized in the above examples were given to incubate for 24 hours, then an original culture medium was removed, 4% paraformaldehyde was added into each well to fix for 15 minutes after PBS washing, the mixture was permeabilized with 0.3% TritonX-100 for 5 minutes and sealed at room temperature with 4% BSA for 1 hour, a primary antibody (1:1000) was incubated at 4° C. overnight, a goat anti-mouse fluorescent secondary antibody (1:300) was incubated at room temperature in the dark for 1 hour, and a sealed slide was imaged by a fluorescence microscope (Leica). According to the image, a total axon length of a single DRG neuron was tracked by a Neuro J plug-in in Image J software, and a multiple of the total axon length relative to that of the blank control group was calculated."}, "[4]": {"system": "diabetic foot ulcer rat model (STZ-induced diabetic rat)", "experiment": "Foot ulcer wound area of diabetic foot ulcer model rat", "assay_type": "in vivo, Sprague Dawley rats", "conditions": "for Area of foot ulcer wound: DFU rats, S26 46.8 mg/kg/day intragastric, Mean ± SD, n = 6", "description": "Diabetic foot ulcer (DFU) was the most common manifestation of diabetic foot, and was also a main cause of amputation of a diabetic patient. In this experiment, a certain area of wound was created on a foot back of the diabetic rat at one time to form a diabetic foot ulcer model, and then the compound S26 was administrated for treatment. The influence of the vinpocetine derivative S26 on the healing of the diabetic foot ulcer was evaluated by taking a photo of the wound and quantifying an area of the wound. […] Four weeks after STZ injection, an inhalation anesthesia machine was used to carry out isoflurane inhalation to induce anesthesia, and a complete round skin wound was created on a rear foot back of the diabetic rat through a disposable 5 mm skin biopsy punch and a Westcott scissor. After the establishment of the diabetic foot ulcer rat model, the rats were divided into a control group (non-diabetic rats), a model group (DFU rats) and a S26 administration group (46.8 mg/kg/day) respectively according to blood sugar and body weight, and administrated intragastrically for four weeks continuously. The foot ulcer wound of each rat was observed on day 0, day 3, day 7, day 14, day 21 and day 28 after administration, and photographed with a camera, and then the wound area was quantified by Image J software through scale conversion."}}}
{"smiles": "CC[C@@]12C=C(C(=O)NCC(=O)OCCOCCOCCOCCO)n3c4c(c5ccccc53)CCN(CCC1)[C@H]42", "note": "[Compound S26]", "values": [{"measurement": "Latent period of thermal pain", "setting": "[1]; week 0 of administration", "result": "15.55 ± 2.29 ^ s"}, {"measurement": "Latent period of thermal pain", "setting": "[1]; week 1 of administration", "result": "13.50 ± 2.05 ^ s"}, {"measurement": "Latent period of thermal pain", "setting": "[1]; week 2 of administration", "result": "12.00 ± 2.28", "unit": "s"}, {"measurement": "Latent period of thermal pain", "setting": "[1]; week 3 of administration", "result": "8.62 ± 1.51", "unit": "s"}, {"measurement": "Latent period of thermal pain", "setting": "[1]; week 4 of administration", "result": "7.65 ± 1.30", "unit": "s"}, {"measurement": "Latent period of thermal pain", "setting": "[2]; week 0 of administration", "result": "11.33 ± 0.67 ^ s"}, {"measurement": "Latent period of thermal pain", "setting": "[2]; week 1 of administration", "result": "8.19 ± 0.69", "unit": "s"}, {"measurement": "Latent period of thermal pain", "setting": "[2]; week 2 of administration", "result": "6.97 ± 0.73", "unit": "s"}, {"measurement": "Latent period of thermal pain", "setting": "[2]; week 3 of administration", "result": "6.16 ± 1.33", "unit": "s"}, {"measurement": "Latent period of thermal pain", "setting": "[2]; week 4 of administration", "result": "6.38 ± 0.54", "unit": "s"}, {"measurement": "50% mechanical pain threshold", "setting": "[3]; week 0 of administration", "result": "1.51 ± 0.22^ g"}, {"measurement": "50% mechanical pain threshold", "setting": "[3]; week 1 of administration", "result": "1.06 ± 0.34", "unit": "g"}, {"measurement": "50% mechanical pain threshold", "setting": "[3]; week 2 of administration", "result": "0.92 ± 0.24", "unit": "g"}, {"measurement": "50% mechanical pain threshold", "setting": "[3]; week 3 of administration", "result": "0.87 ± 0.15", "unit": "g"}, {"measurement": "50% mechanical pain threshold", "setting": "[3]; week 4 of administration", "result": "0.85 ± 0.23", "unit": "g"}, {"measurement": "Promotion of axon growth of the primary DRG neuron compared with the positive drug (in words)", "setting": "primary DRG neuron; 10 μm", "result": "more outstanding effect"}, {"measurement": "fold induction at 10 µM", "setting": "primary DRG neuron; Mus musculus, multiple of total axon length of a single DRG neuron relative to blank control group", "result": 13.7}, {"measurement": "Area of foot ulcer wound", "setting": "[4]; day 0 of administration", "result": "25.02 ± 2.85", "unit": "mm^2"}, {"measurement": "Area of foot ulcer wound", "setting": "[4]; day 3 of administration", "result": "22.57 ± 2.76", "unit": "mm^2"}, {"measurement": "Area of foot ulcer wound", "setting": "[4]; day 7 of administration", "result": "11.83 ± 3.73^# mm^2"}, {"measurement": "Area of foot ulcer wound", "setting": "[4]; day 14 of administration", "result": "10.50 ± 2.01^## mm^2"}, {"measurement": "Area of foot ulcer wound", "setting": "[4]; day 21 of administration", "result": "8.78 ± 1.35^## mm^2"}, {"measurement": "Area of foot ulcer wound", "setting": "[4]; day 28 of administration", "result": "6.02 ± 1.67^# mm^2"}, {"measurement": "Area of the foot ulcer wound (in words, FIG. 2)", "setting": "[4]; diabetic foot rat", "result": "obviously reduce"}]}
